Experimental data as given in patent US20260137706A1, “METHODS OF TREATING INFLAMMATORY DISEASES” (INTERLINE THERAPEUTICS, INC., priority 2023, published 2026).
Read-outs that look alike come from different tables or passages of the source.

Assays:
[1] = biological target: T1, GST-RIPK2 fusion protein (human RIPK2, amino acids 1-310) (Homo sapiens, UniProt O43353); experiment: RIPK2 binding competition assay (TR-FRET, Tracer 199 displacement)
T1 construct: made in house; host or cells: baculovirus infected Sf9 cells
How it was run: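 IC50 derived from the TR-FRET emission ratio (665/620 nm, 337 nm excitation), normalized with no-inhibitor and no-enzyme controls. Incubation 45 min at 22 °C, pH 7.5 Tris buffer, with final 10 nM tracer, 1 nM Sf9-expressed GST-RIPK2 fragment (aa 1-310) and 0.5 nM Tb-labelled anti-GST.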

[2] = biological target: T2, binding of His-XIAP(BIR2)-avi fusion protein to GST-RIPK2 fusion protein (RIPK2/XIAP) (Homo sapiens, UniProt O43353); experiment: RIPK2-XIAP binding competition PPI assay (TR-FRET); conditions: for Emax: read-out: PPI Amax bin
T2 construct: made in house; host or cells: baculovirus infected Sf9 cells
How it was run: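 Compounds (in DMSO, 100-fold stock) incubated 120 min at 23 °C with 1 nM GST-RIPK2 (aa 1-310) and 25 nM His-XIAP(BIR2 aa 152-231)-avi, plus anti-His-XL665 and anti-GST-Tb, in pH 7.5 Tris buffer. Read-out: 665/520 nm emission ratio. Normalized to no-inhibitor (0%) and 50 nM GSK583 (−100%); Amax binned A–D.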

[3] = system: NF-κB pathway (SEAP) in THP1-Dual cells; experiment: THP-1 Dual cell SEAP assay (L18-MDP stimulated); assay type: cell-based; conditions: Homo sapiens, THP1-Dual, read-out: NF-κB THP1 IC50 bin
How it was run: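 IC50 values derive from non-linear regression of % inhibition, calculated against DMSO/L18-MDP-treated wells after media-only subtraction. NF-κB SEAP activity was read at OD 620-655 nm (QUANTI-Blue, 2 h, 37 °C) from supernatants of THP1-Dual cells. Cells had been compound-treated 30 min before overnight (20-24 h) stimulation with 10 ng/mL final L18-MDP.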

[4] = 10 nM Tracer 199, 1 nM GST-RIPK2, read-out: RIPK2 IC50
[5] = RIPK2/XIAP binding competition PPI assay, Amax
[6] = RIPK2/XIAP binding competition PPI assay, read-out: PPI IC50 bin

T2 sequence (O43353 1-310 limits assumed): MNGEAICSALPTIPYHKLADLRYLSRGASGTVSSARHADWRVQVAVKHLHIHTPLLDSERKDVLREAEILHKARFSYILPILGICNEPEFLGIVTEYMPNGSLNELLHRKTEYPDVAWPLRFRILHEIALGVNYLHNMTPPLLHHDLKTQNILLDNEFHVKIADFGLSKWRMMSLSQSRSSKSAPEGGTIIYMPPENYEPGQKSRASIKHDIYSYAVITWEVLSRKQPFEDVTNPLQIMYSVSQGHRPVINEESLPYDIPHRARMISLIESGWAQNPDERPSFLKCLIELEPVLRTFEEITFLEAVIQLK
T1 sequence (O43353 1-310): as the sequence (O43353 1-310 limits assumed) above

SMILES | IC50 [1, 4] [nM] | Emax [2, 5] [%] | IC50 [2, 6] [µM] | IC50 [3] [µM] | IC50 ([1]; RIPK2 IC50 (nM), 10 nM Tracer 199, 1 nM GST-RIPK2) [nM] | IC50 ([2]; PPI IC50 bin, RIPK2/XIAP binding competition PPI assay) [µM] | Emax [2] [%]
CCCS(=O)(=O)Nc1cc(-c2cnc3cc(OC)c(C4(O)CCOCC4)cn23)cc(F)c1OC [Example 127, N-(3-fluoro-5-(6-(4-hydroxytetrahydro-2H-pyran-4-yl)-7-methoxyimidazo[1,2-a]pyridin-3-yl)-2-methoxyphenyl)propane-1-sulfonamide] | 1 to 2.5 | > 80 | 0.001 to 0.0025 | 0.05 to 0.25 |  |  | 
COc1cc2ncc(-c3cc(F)c(N)nc3F)n2cc1S(=O)(=O)c1cn[nH]c1 [Example 78, 5-(6-((1H-pyrazol-4-yl)sulfonyl)-7-methoxyimidazo[1,2-a]pyridin-3-yl)-3,6-difluoropyridin-2-amine] | 2.5 to 20 | > 80 | 0.0025 to 0.02 | > 1 |  |  | 
C[C@@H](CO)COc1cc2ncc(-c3cc(F)c(N)nc3F)n2cc1S(=O)(=O)C(C)(C)C [Example 175, (S)-3-((3-(6-amino-2,5-difluoropyridin-3-yl)-6-(tert-butylsulfonyl)imidazo[1,2-a]pyridin-7-yl)oxy)-2-methylpropan-1-ol] | 1 to 2.5 | > 80 | 0.001 to 0.0025 | 0.05 to 0.25 |  |  | 
COc1cc2ncc(-c3cc(F)nc(NCCCO)c3)n2cc1C(F)(F)F [Example 1, 3-((6-Fluoro-4-(7-methoxy-6-(trifluoromethyl)imidazo[1,2-a]pyridin-3-yl)pyridin-2-yl)amino)propan-1-ol] | 2.5 to 20 | < 30 | > 0.02 | 0.05 to 0.25 |  |  | 
CC(C)(C)S(=O)(=O)c1cn2c(-c3cc(Cl)c(N)nc3F)cnc2cc1CCCO [Example 257, 3-(3-(6-amino-5-chloro-2-fluoropyridin-3-yl)-6-(tert-butylsulfonyl)imidazo [1,2-a]pyridin-7-yl)propan-1-ol] | 2.5 to 20 | > 80 | 0.0025 to 0.02 | 0.25 to 1 |  |  | 
C[C@@H](CO)Oc1cc2ncc(-c3cc(F)c(N)nc3F)n2cc1S(=O)(=O)C(C)(C)C [Example 173, (S)-2-((3-(6-amino-2,5-difluoropyridin-3-yl)-6-(tert-butylsulfonyl)imidazo[1,2-a]pyridin-7-yl)oxy)propan-1-ol] |  | > 80 |  | > 1 | 2.5 to 20 | 0.0025 to 0.02 | 
CCCS(=O)(=O)Nc1cc(-c2cnc3cc(OC)c(S(=O)(=O)C(C)(C)C)cn23)cc(-n2cccn2)c1 [Example 81, N-(3-(6-(tert-butylsulfonyl)-7-methoxyimidazo[1,2-a]pyridin-3-yl)-5-(1H-pyrazol-1-yl)phenyl)propane-1-sulfonamide] | 1 to 2.5 | < 30 | > 0.02 | 0.25 to 1 |  |  | 
COc1cc2ncc(-c3ccc4c(C)nn(C)c4c3)n2cc1S(=O)(=O)C(C)(C)C [Example 108, 6-(6-(tert-butylsulfonyl)-7-methoxyimidazo[1,2-a]pyridin-3-yl)-1,3-dimethyl-1H-indazole] | > 20 | < 30 | > 0.02 | > 1 |  |  | 
COc1cc2ncc(-c3cnc4nc(N)ccc4c3)n2cc1S(=O)(=O)C(C)(C)C [Example 91, 6-(6-(tert-butylsulfonyl)-7-methoxyimidazo[1,2-a]pyridin-3-yl)-1,8-naphthyridin-2-amine] | > 20 | 30 to 55 | > 0.02 | > 1 |  |  | 
COCC(C)(C)S(=O)(=O)c1cn2c(-c3cc(F)c(N)nc3F)cnc2cc1OC [Example 167, 3,6-difluoro-5-(7-methoxy-6-((1-methoxy-2-methylpropan-2-yl)sulfonyl)imidazo[1,2-a]pyridin-3-yl)pyridin-2-amine] | > 20 | > 80 | > 0.02 | > 1 |  |  | 
CC(C)(C)S(=O)(=O)c1cn2c(-c3cnc4[nH]ccc4c3)cnc2cc1OCCO [Example 53, 2-((6-(tert-butylsulfonyl)-3-(1H-pyrrolo[2,3-b]pyridin-5-yl)imidazo[1,2-a]pyridin-7-yl)oxy)ethan-1-ol] | < 1 | > 80 | 0.001 to 0.0025 | 0.05 to 0.25 |  |  | 
CC(C)(C)S(=O)(=O)c1cc2c(-c3cc(F)c(N)nc3F)cnn2cc1OCCOP(=O)(O)O [Example 188, 2-((3-(6-amino-2,5-difluoropyridin-3-yl)-5-(tert-butylsulfonyl)pyrazolo[1,5-a]pyridin-6-yl)oxy)ethyl dihydrogen phosphate] | > 20 | > 80 | > 0.02 | > 1 |  |  | 
COc1cc2ncc(-c3ccc(N)nc3F)n2cc1S(=O)(=O)C(C)(C)CO [Example 58, 2-((3-(6-amino-2-fluoropyridin-3-yl)-7-methoxyimidazo[1,2-a]pyridin-6-yl)sulfonyl)-2-methylpropan-1-ol] | > 20 | > 80 | > 0.02 | > 1 |  |  | 
COc1cc2ncc(-c3cc(F)c(N)nc3F)n2cc1S(=O)(=O)N1CCOCC1 [Example 163, 3,6-difluoro-5-(7-methoxy-6-(morpholinosulfonyl)imidazo[1,2-a]pyridin-3-yl)pyridin-2-amine] | > 20 | > 80 | > 0.02 | > 1 |  |  | 
COc1cc2ncc(-c3ccc4nc(N)ccc4c3)n2cc1S(=O)(=O)C(C)(C)C [Example 89, 6-(6-(tert-butylsulfonyl)-7-methoxyimidazo[1,2-a]pyridin-3-yl)quinolin-2-amine] | 2.5 to 20 | < 30 | > 0.02 | 0.25 to 1 |  |  | 
CC(C)(C)S(=O)(=O)c1cc2c(-c3cc(Cl)c(N)nc3F)cnn2cc1OCCOP(=O)(O)O [Example 187, 2-((3-(6-amino-5-chloro-2-fluoropyridin-3-yl)-5-(tert-butylsulfonyl)pyrazolo[1,5-a]pyridin-6-yl)oxy)ethyl dihydrogen phosphate] | 2.5 to 20 | > 80 | 0.0025 to 0.02 | 0.25 to 1 |  |  | 
COc1cc2ncc(-c3cc(F)c(OC)c4[nH]c(CCO)nc34)n2cc1S(=O)(=O)C(C)(C)C [Example 184, 2-(4-(6-(tert-butylsulfonyl)-7-methoxyimidazo[1,2-a]pyridin-3-yl)-6-fluoro-7-methoxy-1H-benzo[d]imidazol-2-yl)ethan-1-ol] | 1 to 2.5 | 30 to 55 | 0.001 to 0.0025 | 0.25 to 1 |  |  | 
COc1cc2ncc(-c3ccc(N)nc3F)n2cc1S(=O)(=O)CCCO [Example 61, 3-((3-(6-amino-2-fluoropyridin-3-yl)-7-methoxyimidazo[1,2-a]pyridin-6-yl)sulfonyl)propan-1-ol] | > 20 | > 80 | > 0.02 | > 1 |  |  | 
CCCS(=O)(=O)Nc1cc(-c2cnc3cc(OC)c(S(=O)(=O)N4CCOCC4)cn23)cc(F)c1OC [Example 162, N-(3-fluoro-2-methoxy-5-(7-methoxy-6-(morpholinosulfonyl)imidazo[1,2-a]pyridin-3-yl)phenyl)propane-1-sulfonamide] | 1 to 2.5 | 55 to 80 | 0.001 to 0.0025 | 0.05 to 0.25 |  |  | 
COc1cc2ncc(-c3ccc4c(N)nn(C)c4c3)n2cc1S(=O)(=O)C(C)(C)C [Example 102, 6-(6-(tert-butylsulfonyl)-7-methoxyimidazo[1,2-a]pyridin-3-yl)-1-methyl-1H-indazol-3-amine] | > 20 | < 30 | > 0.02 | > 1 |  |  | 
COc1cc2ncc(-c3cc4cn[nH]c4cn3)n2cc1S(=O)(=O)C(C)(C)C [Example 11, 5-(6-(tert-butylsulfonyl)-7-methoxyimidazo[1,2-a]pyridin-3-yl)-1H-pyrazolo[3,4-c]pyridine] | 2.5 to 20 |  | > 0.02 | < 0.05 |  |  | < 30
C[C@H](O)COc1cn2ncc(-c3cc(F)c(N)nc3F)c2cc1S(=O)(=O)C(C)(C)C [Example 45, (S)-1-((3-(6-amino-2,5-difluoropyridin-3-yl)-5-(tert-butylsulfonyl)pyrazolo[1,5-a]pyridin-6-yl)oxy)propan-2-ol] | 1 to 2.5 | > 80 | 0.001 to 0.0025 | 0.05 to 0.25 |  |  | 
CC(C)(C)S(=O)(=O)c1cn2c(-c3cnc4[nH]cnc4c3)cnc2cc1OCCO [Example 229, 2-((6-(tert-butylsulfonyl)-3-(3H-imidazo[4,5-b]pyridin-6-yl)imidazo[1,2-a]pyridin-7-yl)oxy)ethan-1-ol] | > 20 | < 30 | > 0.02 | > 1 |  |  | 
CCS(=O)(=O)Nc1cc(-c2cnc3cc(OC)c(S(=O)(=O)C(C)(C)CO)cn23)cc(Cl)c1OC [Example 128, N-(3-chloro-5-(6-((1-hydroxy-2-methylpropan-2-yl)sulfonyl)-7-methoxyimidazo[1,2-a]pyridin-3-yl)-2-methoxyphenyl)ethanesulfonamide] | 1 to 2.5 | 55 to 80 | 0.001 to 0.0025 | 0.05 to 0.25 |  |  | 
